Laboratory results reported in PubChem BioAssay AID330 (DTP/NCI, 2004).
“And” between values parts separate entries of the source, which are not always exact repeats. Equal values may be shown once. Toxic doses and inconclusive results are not listed.

Test system: P388 leukemia ip, CD2F1 mice, survival T/C
Test: NCI In Vivo Anticancer Drug Screen. Data for tumor model P388 Leukemia (intraperitoneal) in CD2F1 (CDF1) mice
Conditions: endpoint: median survival time, higher = longer survival
Procedure, shortened: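 Mice carrying the transplanted tumor received test compound or vehicle. Survival was recorded in each group, and the value is the treated-group measurement divided by that of the vehicle-treated control group.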

[1] = dose: 50.0 mg/kg/injection, schedule: Q01DX005 (ip), vehicle: saline with Tween-80
[2] = dose: 100.0 mg/kg/injection, schedule: Q01DX005 (ip), vehicle: saline with Tween-80
[3] = dose: 200.0 mg/kg/injection, schedule: Q01DX005 (ip), vehicle: saline with Tween-80
[4] = dose: 60.0 mg/kg/injection, schedule: Q01DX005 (ip), vehicle: saline with Tween-80
[5] = dose: 120.0 mg/kg/injection, schedule: Q01DX005 (ip), vehicle: saline with Tween-80
[6] = dose: 240.0 mg/kg/injection, schedule: Q01DX005 (ip), vehicle: saline with Tween-80
[7] = dose: 50.0 mg/kg/injection, schedule: Q01DX005 (ip), vehicle: Klucel (hydroxypropylcellulose) (HPC)
[8] = dose: 100.0 mg/kg/injection, schedule: Q01DX005 (ip), vehicle: Klucel (hydroxypropylcellulose) (HPC)
[9] = dose: 12.5 mg/kg/injection, schedule: Q01DX009 (ip), vehicle: distilled water + Tween-80
[10] = dose: 25.0 mg/kg/injection, schedule: Q01DX009 (ip), vehicle: distilled water + Tween-80
[11] = dose: 50.0 mg/kg/injection, schedule: Q01DX009 (ip), vehicle: distilled water + Tween-80
[12] = dose: 100.0 mg/kg/injection, schedule: Q01DX009 (ip), vehicle: distilled water + Tween-80
[13] = dose: 200.0 mg/kg/injection, schedule: Q01DX009 (ip), vehicle: distilled water + Tween-80
[14] = dose: 12.5 mg/kg/injection, schedule: Q01DX009 (ip), vehicle: water
[15] = dose: 25.0 mg/kg/injection, schedule: Q01DX009 (ip), vehicle: water
[16] = dose: 100.0 mg/kg/injection, schedule: Q01DX009 (ip), vehicle: water
[17] = dose: 3.13 mg/kg/injection, schedule: Q04DX003 (ip), vehicle: saline

[CH3][Ge]1([CH3])[CH2]C(c2ccccc2)=C(c2ccccc2)[CH2]1
T/C (dose: 60.0 mg/kg/injection, schedule: Q01DX005 (ip), vehicle: Klucel (hydroxypropylcellulose) (HPC)): 99 % of control
T/C (dose: 120.0 mg/kg/injection, schedule: Q01DX005 (ip), vehicle: Klucel (hydroxypropylcellulose) (HPC)): 94 % of control
T/C (dose: 240.0 mg/kg/injection, schedule: Q01DX005 (ip), vehicle: Klucel (hydroxypropylcellulose) (HPC)): 90 % of control

O=C1CN=CN1
T/C (dose: 60.0 mg/kg/injection, schedule: Q01DX005 (ip), vehicle: saline): 96 % of control
T/C (dose: 120.0 mg/kg/injection, schedule: Q01DX005 (ip), vehicle: saline): 96 % of control
T/C (dose: 240.0 mg/kg/injection, schedule: Q01DX005 (ip), vehicle: saline): 102 % of control

COCCOCCOCCOCCO
T/C [1]: 102 % of control
T/C [2]: 100 % of control
T/C [3]: 104 % of control

O=C1CSC(c2ccc(F)c(F)c2)N1c1nncs1 (stereo not given)
T/C [4]: 99 % of control
T/C [5]: 101 % of control
T/C [6]: 101 % of control

O=C(NCCCl)OCC(Cl)(Cl)Cl
T/C (dose: 50.0 mg/kg/injection, schedule: Q01DX009 (ip), vehicle: saline with Tween-80): 91 % of control
T/C (dose: 100.0 mg/kg/injection, schedule: Q01DX009 (ip), vehicle: saline with Tween-80): 100 % of control
T/C (dose: 200.0 mg/kg/injection, schedule: Q01DX009 (ip), vehicle: saline with Tween-80): 98 % of control

O=C(/C=C/c1ccccc1)c1cc2c(cc1O)OCO2
T/C [4]: 103 % of control
T/C [5]: 107 % of control
T/C [6]: 100 % of control

CCCCCC1=CC2(F)C(=O)NC(=O)NC12 (stereo not given)
T/C (dose: 12.5 mg/kg/injection, schedule: Q01DX005 (ip), vehicle: Klucel (hydroxypropylcellulose) (HPC)): 97 % of control
T/C (dose: 25.0 mg/kg/injection, schedule: Q01DX005 (ip), vehicle: Klucel (hydroxypropylcellulose) (HPC)): 98 % of control
T/C [7]: 108 % of control
T/C [8]: 95 % of control

CC1(C)OCC(C2OC(C)(C)OC2C(O)c2ccco2)O1 (stereo not given)
T/C [9]: 106 % of control and 100 % of control
T/C [10]: 115 % of control and 117 % of control
T/C [11]: 105 % of control and 118 % of control
T/C [12]: 118 % of control and 115 % of control
T/C [13]: 115 % of control

C[C@@H]1CC(c2ccc(Cl)cc2)[C@@H](c2ccccc2)C(=O)O1 (stereo not given in full)
T/C (dose: 100.0 mg/kg/injection, schedule: Q04DX003 (ip), vehicle: Klucel (hydroxypropylcellulose) (HPC)): 100 % of control
T/C (dose: 200.0 mg/kg/injection, schedule: Q04DX003 (ip), vehicle: Klucel (hydroxypropylcellulose) (HPC)): 99 % of control
T/C (dose: 400.0 mg/kg/injection, schedule: Q04DX003 (ip), vehicle: Klucel (hydroxypropylcellulose) (HPC)): 97 % of control

N=C(N)SCc1cccc(C(=O)O)c1
T/C [7]: 110 % of control
T/C [8]: 105 % of control
T/C (dose: 200.0 mg/kg/injection, schedule: Q01DX005 (ip), vehicle: Klucel (hydroxypropylcellulose) (HPC)): 96 % of control

O=NNc1ncc(Sc2ccccc2)nc1Sc1ccccc1
T/C (dose: 6.25 mg/kg/injection, schedule: Q01DX009 (ip), vehicle: water): 103 % of control
T/C [14]: 113 % of control
T/C [15]: 122 % of control
T/C [16]: 106 % of control

Cc1ccc(S(=O)(=O)NC(=O)Nc2nccs2)cc1
T/C [9]: 99 % of control
T/C [10]: 92 % of control
T/C [11]: 97 % of control
T/C [12]: 106 % of control
T/C [13]: 99 % of control

O/N=C(/c1ccccc1)n1nnc2ccccc21
T/C [4]: 118 % of control
T/C [5]: 106 % of control
T/C [6]: 105 % of control

O=C(CSCC(=O)c1ccc([N+](=O)[O-])cc1)c1ccc([N+](=O)[O-])cc1
T/C [1]: 94 % of control
T/C [2]: 96 % of control
T/C [3]: 87 % of control

C/C1=C/C(O)C/C(C)=C\C(O)C(=O)/C=C/C2C(CC1)C2(C)C (stereo not given)
T/C (dose: 2.5 mg/kg/injection, schedule: Q01DX005 (ip), vehicle: distilled water + Tween-80 + alcohol): 104 % of control
T/C (dose: 5.0 mg/kg/injection, schedule: Q01DX005 (ip), vehicle: distilled water + Tween-80 + alcohol): 105 % of control
T/C (dose: 10.0 mg/kg/injection, schedule: Q01DX005 (ip), vehicle: distilled water + Tween-80 + alcohol): 100 % of control
T/C (dose: 20.0 mg/kg/injection, schedule: Q01DX005 (ip), vehicle: distilled water + Tween-80 + alcohol): 108 % of control

CN(C)CCNC(c1ccccc1)C(O)c1ccccc1 (stereo not given)
T/C (dose: 50.0 mg/kg/injection, schedule: Q01DX009 (ip), vehicle: Klucel (hydroxypropylcellulose) (HPC)): 100 % of control
T/C (dose: 100.0 mg/kg/injection, schedule: Q01DX009 (ip), vehicle: Klucel (hydroxypropylcellulose) (HPC)): 101 % of control

COc1cccc2c1C(=O)c1c(O)c3c(c(O)c1C2=O)[C@@H](OC)[C@@](O)(C(C)=O)C[C@@H]3OC1CC(N)C(O)C(C)O1 (stereo not given in full)
T/C [17]: 110 % of control
T/C (dose: 6.25 mg/kg/injection, schedule: Q04DX003 (ip), vehicle: saline): 115 % of control

CCN(CC)CCNC(=O)c1ccc2c(c1)C(=O)c1ccccc1C2=O
T/C (dose: 100.0 mg/kg/injection, schedule: Q04DX003 (ip), vehicle: saline): 108 % of control
T/C (dose: 200.0 mg/kg/injection, schedule: Q04DX003 (ip), vehicle: saline): 119 % of control

CC[n+]1c(-c2ccccc2)c2cc(N)ccc2c2ccc(N)cc21
T/C (dose: 0.39 mg/kg/injection, schedule: Q04DX003 (ip), vehicle: saline): 101 % of control
T/C (dose: 0.39 mg/kg/injection, schedule: Q04DX003 (ip), vehicle: water): 103 % of control
T/C (dose: 0.78 mg/kg/injection, schedule: Q04DX003 (ip), vehicle: saline): 100 % of control
T/C (dose: 0.78 mg/kg/injection, schedule: Q04DX003 (ip), vehicle: water): 104 % of control
T/C (dose: 1.56 mg/kg/injection, schedule: Q01DX009 (ip), vehicle: saline): 150 % of control
T/C (dose: 1.56 mg/kg/injection, schedule: Q04DX003 (ip), vehicle: saline): 106 % of control
T/C (dose: 1.56 mg/kg/injection, schedule: Q04DX003 (ip), vehicle: water): 113 % of control
T/C (dose: 3.13 mg/kg/injection, schedule: Q01DX009 (ip), vehicle: saline): 153 % of control
T/C (dose: 3.13 mg/kg/injection, schedule: Q01DX009 (ip), vehicle: water): 161 % of control
T/C [17]: 114 % of control
T/C (dose: 3.13 mg/kg/injection, schedule: Q04DX003 (ip), vehicle: water): 123 % of control
T/C (dose: 6.25 mg/kg/injection, schedule: Q01DX009 (ip), vehicle: saline): 170 % of control
T/C (dose: 18.0 mg/kg/injection, schedule: Q04DX003 (ip), vehicle: saline sonified): 150 % of control
T/C (dose: 25.0 mg/kg/injection, schedule: Q04DX003 (ip), vehicle: saline): 117 % of control
T/C (dose: 27.0 mg/kg/injection, schedule: Q04DX003 (ip), vehicle: saline sonified): 109 % of control

O=C(O)C1(Cc2ccccc2)C(=O)C=Cc2ccccc21 (stereo not given)
T/C (dose: 100.0 mg/kg/injection, schedule: Q01DX001 (ip), vehicle: Klucel (hydroxypropylcellulose) (HPC)): 101 % of control
T/C (dose: 200.0 mg/kg/injection, schedule: Q01DX001 (ip), vehicle: Klucel (hydroxypropylcellulose) (HPC)): 101 % of control
T/C (dose: 400.0 mg/kg/injection, schedule: Q01DX001 (ip), vehicle: Klucel (hydroxypropylcellulose) (HPC)): 97 % of control

COC(=O)CC1C(C)(C)C(=O)C2CC3=C4CC(=O)OC(c5ccoc5)C4(C)CCC3C1(C)C2=O (stereo not given)
T/C [4]: 97 % of control
T/C [5]: 92 % of control
T/C [6]: 89 % of control

COc1ccc(C(O)c2ncccc2C)cc1OC (stereo not given)
T/C [14]: 102 % of control
T/C [15]: 94 % of control
T/C (dose: 50.0 mg/kg/injection, schedule: Q01DX009 (ip), vehicle: water): 99 % of control
T/C [16]: 100 % of control
T/C (dose: 200.0 mg/kg/injection, schedule: Q01DX009 (ip), vehicle: water): 101 % of control

O=C(O)CCSSCCCS(=O)O
T/C (dose: 50.0 mg/kg/injection, schedule: Q01DX005 (ip), vehicle: saline): 109 % of control
T/C (dose: 100.0 mg/kg/injection, schedule: Q01DX005 (ip), vehicle: saline): 114 % of control
T/C (dose: 200.0 mg/kg/injection, schedule: Q01DX005 (ip), vehicle: saline): 124 % of control

CC1(O)c2ccccc2-c2ccccc2C1(C)O (stereo not given)
T/C [1]: 97 % of control
T/C [2]: 100 % of control
T/C [3]: 90 % of control
